Results from US20170050957A1, “4-AMINO-6-(HETEROCYCLIC)PICOLINATES AND 6-AMINO-2-(HETEROCYCLIC)PYRIMIDINE-4-CARBOXYLATES AND THEIR USE AS HERBICIDES” (Dow AgroSciences LLC, priority 2013, published 2017).
Read-outs that look alike come from different tables or passages of the source.

Tests used:
[1] = test system: Key Broadleaf Weed and Crop Species; test: Post-emergent Test II herbicidal activity (Table 15); format: in vivo; details: post-emergence, 336 h, 14 d; for pest or weed control at 35 g/ha: 35 g ai/ha; for pest or weed control at 70 g/ha: 70 g ai/ha; for pest or weed control at 140 g/ha: 140 g ai/ha
Summary of the method: (§1)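 Herbicidal effect scored as percent visual injury, 14 d after post-emergent application. Spray solutions contained acetone, DMSO, isopropyl alcohol, crop oil concentrate and surfactant, applied at 187 L/ha to young plants (1-2 true leaves).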

[2] = test system: Key Grass and Sedge Weeds as well as Grass Crops; test: Post-emergent Test II herbicidal activity (Table 16); format: in vivo; details: post-emergence, 336 h, 14 days after application; for pest or weed control at 35 g/ha: 35 g ai/ha; for pest or weed control at 70 g/ha: 70 g ai/ha; for pest or weed control at 140 g/ha: 140 g ai/ha
Summary of the method: as §1

[3] = Abutilon theophrasti, velvetleaf (Abutilon theophrasti), read-out: Visual Growth Reduction (%) 14 Days After Application, ABUTH
[4] = Amaranthus retroflexus, redroot pigweed (Amaranthus retroflexus), read-out: Visual Growth Reduction (%) 14 Days After Application, AMARE
[5] = Brassica napus, oilseed rape, canola (Brassica napus), read-out: Visual Growth Reduction (%) 14 Days After Application, BRSNN
[6] = Chenopodium album, lambsquarters (Chenopodium album), read-out: Visual Growth Reduction (%) 14 Days After Application, CHEAL
[7] = Euphorbia heterophylla, wild poinsettia (Euphorbia heterophylla), read-out: Visual Growth Reduction (%) 14 Days After Application, EPHHL
[8] = Helianthus annuus, sunflower (Helianthus annuus), read-out: Visual Growth Reduction (%) 14 Days After Application, HELAN
[9] = Cyperus esculentus, yellow nutsedge (Cyperus esculentus), read-out: Visual Growth Reduction (%) 14 Days After Application CYPES
[10] = Echinochloa crus-galli, barnyardgrass (Echinochloa crus-galli), read-out: Visual Growth Reduction (%) 14 Days After Application ECHCG
[11] = Oryza sativa, rice (Oryza sativa), read-out: Visual Growth Reduction (%) 14 Days After Application ORYSA
[12] = Setaria faberi, giant foxtail (Setaria faberi), read-out: Visual Growth Reduction (%) 14 Days After Application SETFA
[13] = Triticum aestivum, wheat, spring (Triticum aestivum), read-out: Visual Growth Reduction (%) 14 Days After Application TRZAS
[14] = Zea mays, maize, corn (Zea mays), read-out: Visual Growth Reduction (%) 14 Days After Application ZEAMX

| SMILES | pest or weed control at 35 g/ha [1, 3] | pest or weed control at 70 g/ha [1, 3] | pest or weed control at 140 g/ha [1, 3] | pest or weed control at 35 g/ha [1, 4] | pest or weed control at 70 g/ha [1, 4] | pest or weed control at 140 g/ha [1, 4] | pest or weed control at 35 g/ha [1, 5] | pest or weed control at 70 g/ha [1, 5] | pest or weed control at 140 g/ha [1, 5] | pest or weed control at 35 g/ha [1, 6] | pest or weed control at 70 g/ha [1, 6] | pest or weed control at 140 g/ha [1, 6] | pest or weed control at 35 g/ha [1, 7] | pest or weed control at 70 g/ha [1, 7] | pest or weed control at 140 g/ha [1, 7] | pest or weed control at 35 g/ha [1, 8] | pest or weed control at 70 g/ha [1, 8] | pest or weed control at 140 g/ha [1, 8] | melting point | pest or weed control at 35 g/ha [2, 9] | also measured |
| --- | --- | --- | --- | --- | --- | --- | --- | --- | --- | --- | --- | --- | --- | --- | --- | --- | --- | --- | --- | --- | --- |
| COC(=O)c1nc(-c2ccc3ccsc3c2)c(C)c(N)c1Cl [Compound 3.18] | 60 to 74% | 75 to 84% | 75 to 84% | 60 to 74% | 75 to 84% | 95 to 100% | 0 to 29% | 0 to 29% | 0 to 29% | 30 to 44% | 60 to 74% | 60 to 74% | 45 to 59% | 0 to 29% | 30 to 44% | 95 to 100% | 95 to 100% | 95 to 100% | 143 to 146 °C | 0 to 29% | pest or weed control at 70 g/ha [2, 9]: 0 to 29%; pest or weed control at 140 g/ha [2, 9]: 0 to 29%; pest or weed control at 35 g/ha [2, 10]: 0 to 29%; pest or weed control at 70 g/ha [2, 10]: 0 to 29%; pest or weed control at 140 g/ha [2, 10]: 0 to 29%; pest or weed control at 35 g/ha [2, 11]: 0 to 29%; pest or weed control at 70 g/ha [2, 11]: 0 to 29%; pest or weed control at 140 g/ha [2, 11]: 0 to 29%; pest or weed control at 35 g/ha [2, 12]: 0 to 29%; pest or weed control at 70 g/ha [2, 12]: 0 to 29%; pest or weed control at 140 g/ha [2, 12]: 0 to 29%; pest or weed control at 35 g/ha [2, 13]: 0 to 29%; pest or weed control at 70 g/ha [2, 13]: 0 to 29%; pest or weed control at 140 g/ha [2, 13]: 0 to 29%; pest or weed control at 35 g/ha [2, 14]: 0 to 29%; pest or weed control at 70 g/ha [2, 14]: 0 to 29%; pest or weed control at 140 g/ha [2, 14]: 0 to 29% |
| Cc1c(-c2ccc3ccsc3c2)nc(C(=O)O)c(Cl)c1N [Compound 3.19] | 0 to 29% | 0 to 29% | 60 to 74% | 60 to 74% | 95 to 100% | 75 to 84% | 0 to 29% | 0 to 29% | 0 to 29% | 60 to 74% | 60 to 74% | 75 to 84% | 0 to 29% | 0 to 29% | 0 to 29% | 85 to 94% | 85 to 94% | 85 to 94% | 157 to 162 °C | 0 to 29% | pest or weed control at 70 g/ha [2, 9]: 0 to 29%; pest or weed control at 140 g/ha [2, 9]: 0 to 29%; pest or weed control at 35 g/ha [2, 10]: 0 to 29%; pest or weed control at 70 g/ha [2, 10]: 0 to 29%; pest or weed control at 140 g/ha [2, 10]: 0 to 29%; pest or weed control at 35 g/ha [2, 11]: 0 to 29%; pest or weed control at 70 g/ha [2, 11]: 0 to 29%; pest or weed control at 140 g/ha [2, 11]: 0 to 29%; pest or weed control at 35 g/ha [2, 12]: 0 to 29%; pest or weed control at 70 g/ha [2, 12]: 0 to 29%; pest or weed control at 140 g/ha [2, 12]: 0 to 29%; pest or weed control at 35 g/ha [2, 13]: 0 to 29%; pest or weed control at 70 g/ha [2, 13]: 0 to 29%; pest or weed control at 140 g/ha [2, 13]: 0 to 29%; pest or weed control at 35 g/ha [2, 14]: 0 to 29%; pest or weed control at 70 g/ha [2, 14]: 0 to 29%; pest or weed control at 140 g/ha [2, 14]: 0 to 29% |
| COC(=O)c1nc(-c2ccc3ccsc3c2)nc(N)c1OC [Compound 3.20] | 0 to 29% | 0 to 29% | 0 to 29% | 0 to 29% | 60 to 74% | 60 to 74% | 30 to 44% | 60 to 74% | 60 to 74% | 85 to 94% | 95 to 100% | 95 to 100% | 75 to 84% | 95 to 100% | 95 to 100% | 75 to 84% | 85 to 94% | 85 to 94% | 143 to 145 °C | 30 to 44% | pest or weed control at 70 g/ha [2, 9]: 30 to 44%; pest or weed control at 140 g/ha [2, 9]: 85 to 94%; pest or weed control at 35 g/ha [2, 10]: 0 to 29%; pest or weed control at 70 g/ha [2, 10]: 45 to 59%; pest or weed control at 140 g/ha [2, 10]: 60 to 74%; pest or weed control at 35 g/ha [2, 11]: 0 to 29%; pest or weed control at 70 g/ha [2, 11]: 0 to 29%; pest or weed control at 140 g/ha [2, 11]: 0 to 29%; pest or weed control at 35 g/ha [2, 12]: 0 to 29%; pest or weed control at 70 g/ha [2, 12]: 0 to 29%; pest or weed control at 140 g/ha [2, 12]: 60 to 74%; pest or weed control at 35 g/ha [2, 13]: 0 to 29%; pest or weed control at 70 g/ha [2, 13]: 0 to 29%; pest or weed control at 140 g/ha [2, 13]: 30 to 44%; pest or weed control at 35 g/ha [2, 14]: 0 to 29%; pest or weed control at 70 g/ha [2, 14]: 75 to 84%; pest or weed control at 140 g/ha [2, 14]: 85 to 94% |
